Measured values from patent publication US20140220566A1, “MATERIALS AND METHODS FOR DETERMINING SENSITIVITY POTENTIAL OF COMPOUNDS” (ELECTROPHORETICS LIMITED, priority 2011, published 2014).

What was measured:
Myeloperoxidase (MPO) = test: Myeloperoxidase ELISA in supernatant of Mutz-3 cells; format: cell-based, human; settings: FIG. 4
Excerpt: (§1) As an alternative approach to find predictive markers for sensitizing potential we explored the potential of cell culture supernatants as a source of markers for chemical safety by adopting a more targeted approach using commercially available immunoassays to measure the levels of three known inflammatory markers. The three proteins to be measured by ELISA were selected on the basis of a review of literature references to secreted inflammatory protein response to chemical sensitizer. Cells were cultured as described in Example 1 and the spent medium removed for direct analysis by ELISA. All kits were used in accordance with manufacturer's instructions.
MPO is a peroxidase enzyme which is stored in lysosomes and released during inflammation Myeloperoxidase was measured by ELISA (Assay-Designs) (FIG. 4).

MUTZ-3 cells = test: PLS score plot of proteomic response, fourth study; format: cell-based, human; settings: FIG. 3, ANOVA filtered protein list
Method: In the fourth study (40-002—8) Mutz-3 cells were incubated with 2 contact sensitizer (120 μM cinnamic aldehyde, 4 μM DNCB), 1 respiratory sensitizer (150 μM TMA), 1 irritant (200 μM SDS) and 1 controls (untreated).
A preferred method for classification of chemicals is employing partial least squares regression analysis (PLS). PLS discriminant analysis identifies the most important classifiers from the list of interest. A model was built using the response variables (y) highlighted in red and the ANOVA filtered proteins as predictors (x). The first PLS components (x-axis) was plotted against the second PLS component (y-axis) and separated the biomarkers having a role in classifying the three experimental groups “control”, “irritant” and sensitizer”.
In the score plot each point represents one 1 sample. Based on the ANOVA filtered protein list samples a good separation between control, sensitizer and irritant treated samples was achieved.

[1] = test system: Calprotectin (S100A8/S100A9); test: Calprotectin immunoassay in supernatant of Mutz-3 cells; format: cell-based, human; settings: FIG. 5
Excerpt: as §1
Calprotectin is heterodimer of S100A8/S100A9 was measured in supernatant of Mutz-3 cells by a commercially available immunoassay (Immundiagnostik AG, Bensheim, Germany) (FIG. 5). Calprotectin is actively secreted by phagocytes in response to stress and binds to Toll-like receptor 4 (TLR4). Toll-like receptors play an important role in the innate immune system and activation of TLR4 by calprotectin further amplifies inflammation (Ehrchen et al. 2009). TLR4 and interleukin 12 double knock-out mice, show a marked decrease of DC-sensitization by a broad range of different sensitizers including 2,4,6-trinitro-1-chlorobenzene (TNCB), oxazolone, and fluorescein isothiocyanate (Martin et al. 2008). […]

dendritic cell lines = settings: Mitjans et al. 2009; cited from earlier work

| Compound | MPO release into supernatant of Mutz-3 cells (Myeloperoxidase (MPO)) | relative distance of treated samples from control in PLS score plot (MUTZ-3 cells) | S100A8/S100A9 (calprotectin) levels in supernatant of Mutz-3 cells [1] | response of the IL-8 assay (dendritic cell lines) |
| --- | --- | --- | --- | --- |
| O=[N+]([O-])c1ccc(Cl)c([N+](=O)[O-])c1 [DNCB, 1-chloro-2,4-dinitrobenzene] | activates an inflammatory pathway involving release of the peroxidase enzyme MPO | greatest relative distance from the control | modulated |  |
| O=C(O)c1ccc2c(c1)C(=O)OC2=O [TMA, Trimellitic anhydride] | does not activate this pathway | smaller distance to control sample |  | fails to respond |
